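Dose response: 5 concentrations. Exposure: 48 h. Format: 96-well plates. Endpoint: linear interpolation; highest concentration if not reached. GI50 is the concentration that inhibits growth by half.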 The source made the active and inactive calls. Cut-off read from the data, not from the text of the source: active = GI50 up to about 1.1 µM and inactive = higher.
What was measured:
Assay in all cases: NCI-60 cell line screen, 48 h
COLO 205 = system: COLO 205
UACC-62 = system: UACC-62
SF-539 = system: SF-539
LOX IMVI = system: LOX IMVI
HCT-15 = system: HCT-15
OVCAR-3 = system: OVCAR-3
OVCAR-8 = system: OVCAR-8
K562 = system: K562
U-251 = system: U-251
UACC-257 = system: UACC-257
NCI-H460 = system: NCI-H460
OVCAR-4 = system: OVCAR-4
SF-295 = system: SF-295
EKVX = system: EKVX
SK-OV-3 = system: SK-OV-3
CCRF-CEM = system: CCRF-CEM
SR = system: SR

SMILES	GI50 (COLO 205)	GI50 (UACC-62)	GI50 (SF-539)	GI50 (LOX IMVI)	GI50 (HCT-15) [µM]	GI50 (OVCAR-3)	GI50 (OVCAR-8)	GI50 (K562)	GI50 (U-251)	GI50 (UACC-257)	GI50 (NCI-H460)	GI50 (OVCAR-4)	GI50 (SF-295)	GI50 (EKVX)	GI50 (SK-OV-3)	GI50 (CCRF-CEM)	GI50 (SR)
CCS[C@H]1NC(=O)C1[C@H](C)O[Si](C)(C)C(C)(C)C (stereo partly specified)	> 100 µM (inactive)	> 100 µM (inactive)	> 100 µM (inactive)	32.2 µM (inactive)	> 100	> 100 µM (inactive)	> 100 µM (inactive)	34.3 µM (inactive)	> 100 µM (inactive)	48 µM (inactive)	> 100 µM (inactive)	> 100 µM (inactive)	> 100 µM (inactive)	> 100 µM (inactive)	–	–	–
NC1CCCCC1.O=P(O)(O)C1(P(=O)(O)O)CC1	> 100 µM (inactive)	> 100 µM (inactive)	> 100 µM (inactive)	> 100 µM (inactive)	> 100	> 100 µM (inactive)	> 100 µM (inactive)	> 100 µM (inactive)	> 100 µM (inactive)	> 100 µM (inactive)	> 100 µM (inactive)	> 100 µM (inactive)	> 100 µM (inactive)	> 100 µM (inactive)	> 100 µM (inactive)	> 100 µM (inactive)	–
O=C(CCCCCCCCCCc1ccccc1)C1=C(O)CC(O)CC1=O (stereo unspecified)	45.2 µM (inactive)	59.8 µM (inactive)	86.7 µM (inactive)	48.2 µM (inactive)	–	52.6 µM (inactive)	49.7 µM (inactive)	30.5 µM (inactive)	55.1 µM (inactive)	63.1 µM (inactive)	46.3 µM (inactive)	74.3 µM (inactive)	56.8 µM (inactive)	81.1 µM (inactive)	> 100 µM (inactive)	45.1 µM (inactive)	40.9 µM (inactive)
Nc1ncnc2c1ncn2C1CC(OC2CCCCO2)C(CO)O1 (stereo unspecified)	> 100 µM (inactive)	–	> 100 µM (inactive)	> 100 µM (inactive)	> 100	> 100 µM (inactive)	> 100 µM (inactive)	> 100 µM (inactive)	> 100 µM (inactive)	> 100 µM (inactive)	> 100 µM (inactive)	> 100 µM (inactive)	> 100 µM (inactive)	67.5 µM (inactive)	> 100 µM (inactive)	> 100 µM (inactive)	> 100 µM (inactive)
CN(C)CCNC(=O)c1cc([N+](=O)[O-])cc2ccc(-c3ccccc3)nc12	6.05 µM (inactive)	4.62 µM (inactive)	7.66 µM (inactive)	7.03 µM (inactive)	7.26	10.9 µM (inactive)	8.11 µM (inactive)	17.1 µM (inactive)	10.2 µM (inactive)	5.75 µM (inactive)	3.8 µM (inactive)	5.55 µM (inactive)	8.79 µM (inactive)	24.7 µM (inactive)	9.02 µM (inactive)	3.1 µM (inactive)	–
C1CCC(N=C2N(C3CCCCC3)C(=NC3CCCCC3)N2C2CCCCC2)CC1	> 100 µM (inactive)	> 100 µM (inactive)	–	> 100 µM (inactive)	> 100	> 100 µM (inactive)	> 100 µM (inactive)	> 100 µM (inactive)	> 100 µM (inactive)	> 100 µM (inactive)	> 100 µM (inactive)	> 100 µM (inactive)	> 100 µM (inactive)	> 100 µM (inactive)	> 100 µM (inactive)	> 100 µM (inactive)	> 100 µM (inactive)
CCOc1cccc2c1N[S@@](=O)S2	–	49.2 µM (inactive)	> 100 µM (inactive)	> 100 µM (inactive)	> 100	> 100 µM (inactive)	–	53.3 µM (inactive)	47.8 µM (inactive)	> 100 µM (inactive)	–	–	80.4 µM (inactive)	> 100 µM (inactive)	> 100 µM (inactive)	40.6 µM (inactive)	74.8 µM (inactive)
CN[C@@H](C)[C@H](N)c1ccccc1	> 100 µM (inactive)	> 100 µM (inactive)	> 100 µM (inactive)	> 100 µM (inactive)	> 100	> 100 µM (inactive)	> 100 µM (inactive)	> 100 µM (inactive)	> 100 µM (inactive)	> 100 µM (inactive)	> 100 µM (inactive)	–	> 100 µM (inactive)	> 100 µM (inactive)	> 100 µM (inactive)	> 100 µM (inactive)	–
CC(=O)NC(CCCCN(Cc1ccccc1)C(=O)NCCCl)C(=O)NCc1ccccc1 (stereo unspecified)	> 100 µM (inactive)	> 100 µM (inactive)	> 100 µM (inactive)	–	> 100	> 100 µM (inactive)	> 100 µM (inactive)	> 100 µM (inactive)	> 100 µM (inactive)	> 100 µM (inactive)	> 100 µM (inactive)	> 100 µM (inactive)	> 100 µM (inactive)	> 100 µM (inactive)	–	> 100 µM (inactive)	> 100 µM (inactive)
O=Cc1ccccc1OCCOc1cc(OCCOc2ccccc2C=O)c(OCCOc2ccccc2C=O)cc1OCCOc1ccccc1C=O	> 100 µM (inactive)	> 100 µM (inactive)	> 44.5 µM (inactive)	36.5 µM (inactive)	> 66.2	> 100 µM (inactive)	47.1 µM (inactive)	50.4 µM (inactive)	12.6 µM (inactive)	> 100 µM (inactive)	> 67.9 µM (inactive)	39.9 µM (inactive)	–	32.1 µM (inactive)	> 82.4 µM (inactive)	> 37.1 µM (inactive)	39.8 µM (inactive)
ClC1c2ccccc2C2(c3ccccc3)OOC1(c1ccccc1)O2 (stereo unspecified)	1.87 µM (inactive)	1.87 µM (inactive)	2.31 µM (inactive)	0.352 µM (active)	1.53	1.77 µM (inactive)	2.03 µM (inactive)	1.38 µM (inactive)	1.9 µM (inactive)	1.99 µM (inactive)	1.64 µM (inactive)	1.48 µM (inactive)	2.62 µM (inactive)	2.18 µM (inactive)	–	–	1.32 µM (inactive)
O=c1[nH]c(=O)n(C2OC3COC2C3O)cc1F (stereo unspecified)	> 100 µM (inactive)	–	–	> 100 µM (inactive)	> 100	> 100 µM (inactive)	> 100 µM (inactive)	> 100 µM (inactive)	> 100 µM (inactive)	> 100 µM (inactive)	> 100 µM (inactive)	> 100 µM (inactive)	> 100 µM (inactive)	> 100 µM (inactive)	48.1 µM (inactive)	> 100 µM (inactive)	–
Cc1c2cc[n+](COC(=O)c3ccccc3)cc2c(C)c2c1[nH]c1ccccc12	0.43 µM (active)	1.5 µM (inactive)	0.416 µM (active)	0.436 µM (active)	–	1.37 µM (inactive)	0.551 µM (active)	0.388 µM (active)	0.515 µM (active)	1.52 µM (inactive)	–	0.587 µM (active)	0.491 µM (active)	–	1.39 µM (inactive)	0.434 µM (active)	0.212 µM (active)
O=C(CC1(O)C(=O)Nc2ccccc21)c1ccc(O)cc1O (stereo unspecified)	> 100 µM (inactive)	> 100 µM (inactive)	> 100 µM (inactive)	> 100 µM (inactive)	> 100	> 100 µM (inactive)	> 100 µM (inactive)	> 100 µM (inactive)	–	> 100 µM (inactive)	> 100 µM (inactive)	> 100 µM (inactive)	> 100 µM (inactive)	> 100 µM (inactive)	> 100 µM (inactive)	–	–
O=c1cc(-c2ccccc2)[nH]c2cc(F)cc(F)c12	16.1 µM (inactive)	16.1 µM (inactive)	24.4 µM (inactive)	55.8 µM (inactive)	6.59	–	57.5 µM (inactive)	11.9 µM (inactive)	29.1 µM (inactive)	40.1 µM (inactive)	28.3 µM (inactive)	> 100 µM (inactive)	25.1 µM (inactive)	–	19.7 µM (inactive)	61.7 µM (inactive)	3.75 µM (inactive)
O=C(Nc1cccc(Cl)c1)C(=O)C(C(=O)c1ccc2ccccc2c1)C1OC(=O)c2ccccc21 (stereo unspecified)	17.1 µM (inactive)	15.3 µM (inactive)	7.8 µM (inactive)	17.3 µM (inactive)	> 10	14.7 µM (inactive)	13.9 µM (inactive)	16.1 µM (inactive)	5.4 µM (inactive)	17 µM (inactive)	8.75 µM (inactive)	8.41 µM (inactive)	–	32.7 µM (inactive)	24.6 µM (inactive)	11.2 µM (inactive)	–
CN(C)CCNC(=O)c1cccc2nc3ccc4cccnc4c3nc12	0.232 µM (active)	0.457 µM (active)	0.19 µM (active)	0.24 µM (active)	0.209	0.61 µM (active)	0.194 µM (active)	0.346 µM (active)	0.405 µM (active)	0.447 µM (active)	0.0565 µM (active)	0.468 µM (active)	0.644 µM (active)	0.507 µM (active)	0.469 µM (active)	0.213 µM (active)	–
N#CC(C(=O)CCC(=O)Nc1cccc(C(F)(F)F)c1)c1ccccc1 (stereo unspecified)	–	> 100 µM (inactive)	> 100 µM (inactive)	> 100 µM (inactive)	> 100	> 100 µM (inactive)	> 100 µM (inactive)	> 100 µM (inactive)	> 100 µM (inactive)	> 100 µM (inactive)	> 100 µM (inactive)	> 100 µM (inactive)	> 100 µM (inactive)	> 100 µM (inactive)	–	> 100 µM (inactive)	–
CCO/C([O-])=C(/C=O)[n+]1c(C)n(C)c2ccccc21	> 100 µM (inactive)	> 100 µM (inactive)	> 100 µM (inactive)	> 100 µM (inactive)	> 100	> 100 µM (inactive)	> 100 µM (inactive)	> 100 µM (inactive)	> 100 µM (inactive)	> 100 µM (inactive)	> 100 µM (inactive)	> 100 µM (inactive)	> 100 µM (inactive)	> 100 µM (inactive)	> 100 µM (inactive)	> 100 µM (inactive)	–

— ChEMBL document CHEMBL1201862, “PubChem BioAssay data set” (2004)
